Measurements taken from patent US20150190479A1, “DELIVERY OF CHOLESTERYL ESTER TO STEROIDOGENIC TISSUES” (ALPHACORE PHARMA, LLC, priority 2010, published 2015).

How the values were obtained:
Format in all cases: in vivo, human
[1] = Adrenal function of a trauma patient under treatment; conditions: car accident victim; combination of 150 mg/day anacetrapib and LCAT injection (40 mg) every 5 days
Text: The efficacy of a particular dose may be assessed by reference noting the change in HDL-C or improvement in certain physiologic parameters. Suitable physiologic parameters include, but are not limited to, improved cortisol response to ACTH, improved cortisol levels, change in circulating levels of steroids, e.g., corticosteroids, glucocorticoids, cortisol, testosterone, estrogen, decreased inflammatory cytokines, and improved liver function.
A victim of a car accident with abdominal injuries is brought to the hospital. Their HDL is 55 mg/dl. As HDL routinely falls after trauma, the physician prescribes 150 mg/day anacetrapib and an injection of LCAT (40 mg) every 5 days until the patient is fully stabilized. This treatment maintained the patient's HDL at >75 mg/dl throughout their recovery. Adrenal function was maintained.

[2] = Testosterone level and complaints of a patient with low testosterone; conditions: HDL-C 25 mg/dl, 150 mg/day
Procedure: A patient complains of lethargy and impotence. Their testosterone levels are low, and their HDL-C is 25 mg/dl. The physician prescribes ancetrapib at a dose of 150 mg/day. […] The patient's original complaints are absent.

[3] = HDL-C level of a patient after treatment (illustrative patient examples); conditions: patient admitted for major surgery, HDL-C 25 mg/dl at admission; LCAT 40 mg given 24 hours prior to surgery
Text: Measurement of biomarker levels and parameters described above may be measured using methods that are well known in the art. For example, change in HDL-CE level is easily detected with standard clinical laboratory procedures. Likewise, measuring the adrenal response to ACTH is commonly used in patients with suspected adrenal insufficiency. One of ordinary skill in the art would understand the significance of the results and may choose to adjust the dose based on assessments such as those described above.
A patient is admitted into the hospital for major surgery. The patients HDL-C level is 25 mg/dl. […] The patient is administered a dose of LCAT of 40 mg 24 hours prior to surgery. The patient's HDL-C is measured prior to surgery, and is now above 50 mg/di, thus greatly reducing risk of infection and/or death following the procedure.
A burn victim is stabilized in the hospital with an HDL-C level of 12 mg/dl. […] The patient is infused with rHDL at a dose of 25 mg/kg over a period of 5 hours, raising the patient's HDL-C by 50 mg/dl. In order to maintain this level of HDL, the patient is administered a 60 mg dose of LCAT. Cortisol levels are monitored periodically to determine if the adrenal function is normalized. […]
A patient is beginning to enter septic shock. […] Cortisol levels are monitored to determine if the adrenal function is normalized. […]

Row | Molecule | adrenal function [1] | patient's original complaints (lethargy and impotence) [2] | testosterone level on recheck ([2]; rechecked 'For weeks later') | patient's HDL-C measured prior to surgery [3]
1 | COc1cc(F)c(C(C)C)cc1-c1ccc(C(F)(F)F)cc1CN1C(=O)O[C@H](c2cc(C(F)(F)F)cc(C(F)(F)F)c2)[C@@H]1C [anacetrapib] | maintained | absent | within normal levels | 
2 | lecithin-cholesterol acyltransferase (protein, UniProt P04180 25-440, looked up, enzyme) Phosphatidylcholine-sterol …: FWLLNVLFPPHTTPKAELSNHTRPVILVPGCLGNQLEAKLDKPDVVNWMCYRKTEDFFTIWLDLNMFLPLGVDCWIDNTRVVYNRSSGLVSNAPGVQIRVPGFGKTYSVEYLDSSKLAGYLHTLVQNLVNNGYVRDETVRAAPYDWRLEPGQQEEYYRKLAGLVEEMHAAYGKPVFLIGHSLGCLHLLYFLLRQPQAWKDRFIDGFISLGAPWGGSIKPMLVLASGDNQGIPIMSSIKLKEEQRITTTSPWMFPSRMAWPEDHVFISTPSFNYTGRDFQRFFADLHFEEGWYMWLQSRDLLAGLPAPGVEVYCLYGVGLPTPRTYIYDHGFPYTDPVGVLYEDGDDTVATRSTELCGLWQGRQPQPVHLLPLHGIQHLNMVFSNLTLEHINAILLGAYRQGPPASPTASPEPPPPE | maintained |  |  | above 50 mg/di
